Measurements as given in patent US20080070987A1, “META-XYLYLENEDIAMINE VANADATE SALTS” (priority 2006, published 2008).

Tests used:
[1] = system: streptozotocin-induced diabetic rats; experiment: Chronic subcutaneous (osmotic minipump) treatment of streptozotocin-induced diabetic rats, glycemia; format: in vivo, rat; conditions: for effect on glycemia, in words: streptozotocin (45 mg/kg) diabetic rats, 2.5 μmol/kg/day subcutaneous by osmotic minipumps, about two weeks
Method: FIG. 3 is a graphical illustration of hexaquis(benzylammonium) decavanadate chronic treatment effect on glycemia of diabetic rats by streptozotocin. In FIG. 3, [G] corresponds to the blood concentration of glucose (expressed in mg/dl) measured at different days of treatment (t/d). Diabetic rats were treated, by mini-osmotic pumps, with buffered solution (black diamonds), with hexaquis(benzylammonium) decavanadate (2.5 μmol/kg/day) (black squares) or with identical dose of sodium decavanadate (white circles).
The effect of chronic administration of hexaquis(benzylammonium) decavanadate on glycemia from diabetic rats was determined. Diabetes was induced in rats by intravenous administration of streptozotocin, which destroys the β-pancreatic cells that produce insulin.
Male Wistar rats weighting 180-220 g were purchased from Harlan (Interfauna Ibérica S.A., Spain). Diabetes was induced by a single intraperitoneal injection of a freshly prepared solution of streptozotocin (in some studies the dose was 45 mg/kg body weight and in some others 100 mg/kg body weight dissolved in 50 mM citrate buffer, pH 4.5). Only diabetic animals with glycemia above 300 mg/dl were used. The animals were housed in animal quarters at 22° C. with a 12 h light/12 h dark cycle and were fed ad libitum. All procedures used were approved by the animal ethical committee of the University of Barcelona, Spain. Male mice C57 BL/Ks bearing the db/db mutation (Jackson Laboratories, Bar Harbor, Me.) were purchased from Harlan France (Gannat, France). C57BL/6J male mice were assigned for 16 weeks to very high-fat diet containing (in kcal): 72% from fat, 28% from proteins and <1% from carbohydrates (Burcelin et al., 2002, Am. J. Physiol. Endocrinol. Metab 282: E834-E842).
Osmotic minipumps delivering B6V10 (2.5 μmol/kg body wt/day) or decavanadate (2.5 μmol/kg body wt/day) were implanted subcutaneously in diabetic rats anaesthetised by ketamine hydrochloride (95 mg/kg) and xylasine (10 mg/kg). […] Glycemia was measured on arterio-venous blood collected from the tail vessels at 09:00 am for two weeks, before the administration of vanadate. Insulin concentrations were determined before and after treatment. In another set of experiments, B6V10 was orally administered at a single dose of 5 μmol/kg/day during the first week and 10 μmol/kg/day during 2 additional weeks by gastric gavage. A control group received the corresponding decavanadate salt in the absence of benzylamine. At the end of the treatment, animals were sacrificed and the liver, fat pad, heart and lung were kept at −80° C. and the plasma at −20° C. until their use for in vitro analysis.
In glucose tolerance tests and in chronic treatments, circulating glucose concentrations were determined by a rapid glucose analyser (Accutrend® Sensor Comfort, Roche, Basel. Switzerland). Plasma insulin (IRI) concentration was determined by ELISA method using a kit obtained from Crystal Chem. Inc. (Downers Grove, Ill.). Plasma triglycerides (Biosystems, Barcelona, Spain) and NEFAS (Wako Chemicals, Neuss, Germany) were determined with standard […] methods.
Chronic in vivo efficacy of B6V10 was evaluated in streptozotocin-induced diabetic rats and in db/db mice. Streptozotocin-induced (45 mg/kg) diabetic rats were subcutaneously treated with hexaquis(benzylammonium) decavanadate (2.5 μmol/kg) (B6V10, solid squares, FIG. 8A) or with decavanadate (2.5 μmol/kg) (V10, open circles, FIG. 8A) delivered subcutaneously by osmotic minipumps implanted in the dorsal region. Diabetic rats were also sham-operated (untreated, solid diamonds, FIG. 8A). […] These experiments were repeated using an oral administration protocol. Streptozotocin-induced (45 mg/kg) diabetic rats were orally treated with hexaquis(benzylammonium) decavanadate (5 μmol/kg from day 0 to day 7 and 10 μmol/kg/day from day 7 to day 17) (B6V10, solid squares, FIG. 8B) or received decavanadate (10 μmol/kg) (V10, open circles, FIG. 8B). […]

[2] = system: protein kinase B / insulin receptor phosphorylation; experiment: Intracellular insulin signalling in isolated rat adipocytes (protein kinase B and insulin receptor phosphorylation); format: cell-based, Wistar rats
Method: Isolated fat cells were disrupted for total membrane preparation by hypo-osmotic lysis in a 20 mM HES buffer and an antiprotease and antiphosphatase cocktail as reported by Abella et al. (2003, Diabetes 52: 1004-1013). Protein concentrations were determined by the Bradford method (Bradford, 1976, Anal. Biochem. 72: 248-254) with gamma-globulin as protein concentration standard. Immunoprecipitation and immunoblot assays were performed as previously described by Abella et al. (2004, Diabetologia 47: 429-438) with the use of a monoclonal antiphosphotyrosine antibody for the immunoprecipitation and an anti-insulin receptor antibody for immunobloting, respectively. SDS-polyacrylamide gel electrophoresis was performed on membrane proteins following conventional procedures. Proteins were transferred to Immobilon and immunoblotting was performed as reported by Castello et al. (1994, J. Biol. Chem. 269: 5905-5912).
The mechanism of action of B6V10 was investigated in isolated rat adipocytes. Adipose cells from Wistar rats were incubated for different times in the presence of 25 μM hexaquis(benzylammonium) decavanadate (B6V10). Cells were also incubated in the presence of insulin (100 nM, 45 min), decavanadate (25 μM, 45 min) or semicarbazide (1 mM, 45 min). Subsequently, 2-deoxyglucose uptake (results shown in FIG. 7A), tyrosine phosphorylation of insulin receptor (FIG. 7B), phospho-Thr^308-protein kinase B (FIG. 7C) and phospho-Ser^473-protein kinase B (FIG. 7D) was measured. […] The phosphorylation of protein kinase B induced by B6V10 was parallel to activation of glucose transport (FIGS. 7C and 7D).
The effects of incubation with semicarbazide or phosphatidylinositol 3-kinase inhibitors were also investigated. Adipose cells were incubated with B6V10 (25 μM, 45 min) in the absence or presence of wortmannin (2 μM, 45 min), LY294002 (10 μM, 45 min) or semicarbazide (1 mM, 45 min) and thereafter 2-deoxyglucose uptake was determined during 5 min.

hexaquis(benzylammonium) decavanadate [Example B6V10]
time at which reduction of hyperglycemia was detected ([1]; 2.5 μmol/kg/day subcutaneous minipumps): after only four days of treatment | glucose transport in adipocytes isolated from treated rats ([1]; adipocytes isolated at fourteen days of treatment): increased glucose transport under basal conditions equivalent to that seen in the presence of insulin | effect on glycemia, in words [1]: significant correction of hyperglycemia | effect on glycemia, in words ([1]; listed as hexaquis(benzylammonium) decavanadate): rapid reduction of the hyperglycemia | effect of semicarbazide on protein kinase B phosphorylation induced by the compound ([2]; 1 mM semicarbazide, 45 min): blocked by semicarbazide | earliest time at which protein kinase B phosphorylation was detectable ([2]; isolated rat adipocytes, 25 μM): 2.5 min | phosphorylation (activation) of protein kinase B, in words ([2]; isolated rat adipocytes, 25 μM): rapidly stimulated protein kinase B | tyrosine phosphorylation of insulin receptors ([2]; isolated rat adipocytes, 25 μM): undetectable

sodium decavanadate [Example V10, reference compound]
effect on glycemia, in words [1]: did not alter glycemia | effect on glycemia, in words ([1]; listed as sodium decavanadate): did not modify substantially its glycemia | phosphorylation (activation) of protein kinase B, in words ([2]; isolated rat adipocytes, 25 μM): not observed
